Reference: US11857550B2, “Benzathine analogs” (University of Pittsburgh—Of the Commonwealth System of …, priority 2012, dated 2024)

Test system: C57BL6 mice
Assay type: in vivo
Conditions: 30 ug/ml in drinking water, day 5

`c1ccc(-c2ccc(CNCCNCc3ccc(-c4ccccn4)cc3)cc2)nc1` [BC-1215] was tested, and the lung resistance was “decreased lung resistance”.
